Results reported in PMC12122562, “Phase 1 studies of the indenoisoquinolines LMP776 and LMP744 in patients with solid tumors and lymphomas” (Cancer Chemotherapy and Pharmacology, 2025).
“And” between values parts separate entries of the source, which are not always exact repeats. Equal values may be shown once. “Also recorded” adds a separate entry of the source.

Test system: patients with advanced, refractory solid tumors or lymphomas
Assay: Phase 1 trial of LMP744 (NCT03030417): safety, MTD, adverse events (CTCAE v4.03/v5.0)
Format: in vivo, human
Excerpt: The primary objectives of each study included establishing safety, tolerability, MTD, and recommended phase 2 dose (RP2D) of LMP776 and LMP744 as single agents. The LMP744 study included evaluation of tumor pharmacodynamics as an exploratory objective. Both trials were opened at the National Cancer Institute’s (NCI) Developmental Therapeutics Clinic, and the LMP744 trial was also opened at the University of Pittsburgh Hillman Cancer Center. Both trials used an accelerated dose escalation designs (Simon design 4 for LMP776, Simon design 3 for LMP744) to determine the MTD [30]. Dose levels are listed in Supplementary Table 1. Once the MTD was determined, additional patients were enrolled at that DL in an expansion cohort to evaluate pharmacodynamic changes as described below. LMP776 and LMP744 were administered intravenously through a central line via a 1-h infusion on days 1–5 (QDx5) in 28-day cycles. Both agents were supplied by the NCI Division of Cancer Treatment and Diagnosis (DCTD). The studies were approved by the NIH Institutional Review Board and conducted in accordance with the Declaration of Helsinki.
Patients were enrolled in either NCT01051635 evaluating LMP776 or NCT03030417 evaluating LMP744; these trials were conducted sequentially. Both trials required that patients be ≥ 18 years of age with solid tumors or lymphomas refractory to other treatments. Patients were required to have adequate performance status (Eastern Cooperative Oncology Group [ECOG] performance status ≤ 2), bone marrow function, and organ function as described in the Supplementary Methods. Patients in expansion phases at the MTD were required to have disease amenable to biopsy collection and be willing to undergo research biopsies. All patients provided written informed consent.
Tumor responses were evaluated by serial CT scans according to RECIST v1.1 criteria. CT scans were performed every other cycle during the first year, then every 3 cycles after the first year. Toxicities associated with LMP776 were evaluated according to criteria specified in CTCAE version 4.0; toxicities associated with LMP744 were evaluated according to the criteria specified in CTCAE version 4.03 (on or before March 31, 2018) or version 5.0 (on or after April 1, 2018). Criteria for all versions can be found at https://ctep.cancer.gov/protocolDevelopment/electronic_applications/ctc.htm. Any patient who received a dose of either agent was considered eligible for toxicity evaluation.

[1] = all DLs, highest grade per patient

COc1cc2c3c(n(CCCNCCO)c(=O)c2cc1OC)-c1cc2c(cc1C3=O)OCO2 [LMP744]
Grade 3 non-hematologic DLTs (DL7 (260 mg/m^2/day)): elevated ALT, AST, and GGT in one patient; also recorded: nausea, vomiting, and dehydration | Maximum tolerated dose (MTD) (IV QDx5, 28-day cycles (DL6)): 190 mg/m^2/day | Anemia, grade ≥ 2, prevalence (across all DLs): 36% | Fatigue, grade ≥ 2, prevalence (across all DLs): 22% | Lymphopenia, grade ≥ 2, prevalence (across all DLs): 39% | Alanine aminotransferase increased, grade ≥ 2, Total (%) (all DLs): 2 (6) | Alkaline phosphatase increased, grade ≥ 2, Total (%) (all DLs): 3 (9) | Anorexia, grade ≥ 2, Total (%) (all DLs): 2 (6) | Aspartate aminotransferase increased, grade ≥ 2, Total (%) (all DLs): 2 (6) | Blood bilirubin increased, grade ≥ 2, Total (%) (all DLs): 2 (6) | Constipation, grade ≥ 2, Total (%) (all DLs): 1 (3) | Creatinine increased, grade ≥ 2, Total (%) (all DLs): 5 (14) | Dehydration, grade ≥ 2, Total (%) (all DLs): 4 (11) | Diarrhea, grade ≥ 2, Total (%) (all DLs): 1 (3) | Dry skin, grade ≥ 2, Total (%) (all DLs): 1 (3) | Edema - limbs, grade ≥ 2, Total (%) (all DLs): 1 (3) | Febrile Neutropenia, grade ≥ 2, Total (%) (all DLs): 1 (3) | GGT increased, grade ≥ 2, Total (%) (all DLs): 6 (17) | Hyperglycemia, grade ≥ 2, Total (%) (all DLs): 1 (3) | Hypoalbuminemia, grade ≥ 2, Total (%) (all DLs): 1 (3) | Hypokalemia, grade ≥ 2, Total (%) (all DLs): 2 (6) | Hypomagnesemia, grade ≥ 2, Total (%) (all DLs): 2 (6) | Hyponatremia, grade ≥ 2, Total (%) (all DLs): 1 (3) | Hypophosphatemia, grade ≥ 2, Total (%) (all DLs): 6 (17) | Hypothyroidism, grade ≥ 2, Total (%) (all DLs): 1 (3) | Hypoxia, grade ≥ 2, Total (%) (all DLs): 1 (3) | INR increased, grade ≥ 2, Total (%) (all DLs): 1 (3) | Infections and infestations - NOS, grade ≥ 2, Total (%) (all DLs): 2 (6) | Infusion site extravasation, grade ≥ 2, Total (%) (all DLs): 1 (3) | Leukopenia (White blood cell count decreased), grade ≥ 2, Total (%) (all DLs): 5 (14) | Nausea, grade ≥ 2, Total (%) (all DLs): 6 (17) | Neutropenia, grade ≥ 2, Total (%) (all DLs): 5 (14) | Pain - biopsy site, grade ≥ 2, Total (%) (all DLs): 1 (3) | Platelet count decreased, grade ≥ 2, Total (%) (all DLs): 2 (6) | Proteinuria, grade ≥ 2, Total (%) (all DLs): 2 (6) | Sudden death - NOS, Total (%) (all DLs): 1 (3) | Thrombophlebitis - superficial, grade ≥ 2, Total (%) (all DLs): 1 (3) | Urinary tract infection, grade ≥ 2, Total (%) (all DLs): 1 (3) | Vomiting, grade ≥ 2, Total (%) (all DLs): 6 (17) | Weight loss, grade ≥ 2, Total (%) (all DLs): 4 (11) | White blood cell count increased, grade ≥ 2, Total (%) (all DLs): 1 (3) | Anemia, grade ≥ 2, Total (%) [1]: 13 (37) and 13 (36) | Fatigue, grade ≥ 2, Total (%) [1]: 8 (23) and 8 (22) | Patients requiring dose reductions (enrolled at DL6 (n = 6) or DL7 (n = 5)): Eleven | Alanine aminotransferase increased, patients (grade 2, DL1-DL5): 1 | Alkaline phosphatase increased, patients (grade 2, DL1-DL5): 1 | Anemia, patients (grade 2, DL1-DL5): 2 | Edema - limbs, patients (grade 2, DL1-DL5): 1 | GGT increased, patients (grade 2, DL1-DL5): 1 | Hypophosphatemia, patients (grade 2, DL1-DL5): 1 | Proteinuria, patients (grade 2, DL1-DL5): 1 | Vomiting, patients (grade 2, DL1-DL5): 1 | Lymphopenia (Lymphocyte count decreased), patients (grade 2, DL1-DL5 (n = 7)): 1 | Alanine aminotransferase increased, patients (grade 2, DL6): 1 | Alkaline phosphatase increased, patients (grade 2, DL6): 1 | Anemia, patients (grade 2, DL6): 4 | Anorexia, patients (grade 2, DL6): 1 | Aspartate aminotransferase increased, patients (grade 2, DL6): 1 | Blood bilirubin increased, patients (grade 2, DL6): 1 | Constipation, patients (grade 2, DL6): 1 | Creatinine increased, patients (grade 2, DL6): 3 | Dehydration, patients (grade 2, DL6): 1 | Diarrhea, patients (grade 2, DL6): 1 | Dry skin, patients (grade 2, DL6): 1 | Fatigue, patients (grade 2, DL6): 6 | GGT increased, patients (grade 2, DL6): 3 | Hyperglycemia, patients (grade 2, DL6): 1 | Hypoalbuminemia, patients (grade 2, DL6): 1 | Hypomagnesemia, patients (grade 2, DL6): 1 | Hyponatremia, patients (grade 2, DL6): 1 | Hypophosphatemia, patients (grade 2, DL6): 4 | Hypothyroidism, patients (grade 2, DL6): 1 | Infections and infestations - NOS, patients (grade 2, DL6): 2 | Infusion site extravasation, patients (grade 2, DL6): 1 | Leukopenia (White blood cell count decreased), patients (grade 2, DL6): 3 | Nausea, patients (grade 2, DL6): 3 | Neutropenia, patients (grade 2, DL6): 3 | Pain - biopsy site, patients (grade 2, DL6): 1 | Platelet count decreased, patients (grade 2, DL6): 1 | Proteinuria, patients (grade 2, DL6): 1 | Thrombophlebitis - superficial, patients (grade 2, DL6): 1 | Urinary tract infection, patients (grade 2, DL6): 1 | Vomiting, patients (grade 2, DL6): 4 | Weight loss, patients (grade 2, DL6): 4 | White blood cell count increased, patients (grade 2, DL6): 1 | Lymphopenia (Lymphocyte count decreased), patients (grade 2, DL6 (n = 18; suppl. n=17)): 1 | Alkaline phosphatase increased, patients (grade 2, DL7): 1 | Anemia, patients (grade 2, DL7): 7 | Anorexia, patients (grade 2, DL7): 1 | Blood bilirubin increased, patients (grade 2, DL7): 1 | Creatinine increased, patients (grade 2, DL7): 2 | Dehydration, patients (grade 2, DL7): 1 | Fatigue, patients (grade 2, DL7): 2 | Hypomagnesemia, patients (grade 2, DL7): 1 | Hypophosphatemia, patients (grade 2, DL7): 1 | INR increased, patients (grade 2, DL7): 1 | Leukopenia (White blood cell count decreased), patients (grade 2, DL7): 1 | Nausea, patients (grade 2, DL7): 1 | Platelet count decreased, patients (grade 2, DL7): 1 | Vomiting, patients (grade 2, DL7): 1 | Lymphopenia (Lymphocyte count decreased), patients (grade 2, DL7 (n = 11)): 4 | Alanine aminotransferase increased, patients (grade 2, all DLs (n=35)): 2 | Alkaline phosphatase increased, patients (grade 2, all DLs (n=35)): 3 | Anemia, patients (grade 2, all DLs (n=35)): 13 | Anorexia, patients (grade 2, all DLs (n=35)): 2 | Aspartate aminotransferase increased, patients (grade 2, all DLs (n=35)): 1 | Blood bilirubin increased, patients (grade 2, all DLs (n=35)): 2 | Constipation, patients (grade 2, all DLs (n=35)): 1 | Creatinine increased, patients (grade 2, all DLs (n=35)): 5 | Dehydration, patients (grade 2, all DLs (n=35)): 2 | Diarrhea, patients (grade 2, all DLs (n=35)): 1 | Dry skin, patients (grade 2, all DLs (n=35)): 1 | Edema - limbs, patients (grade 2, all DLs (n=35)): 1 | Fatigue, patients (grade 2, all DLs (n=35)): 8 | GGT increased, patients (grade 2, all DLs (n=35)): 4 | Hyperglycemia, patients (grade 2, all DLs (n=35)): 1 | Hypoalbuminemia, patients (grade 2, all DLs (n=35)): 1 | Hypomagnesemia, patients (grade 2, all DLs (n=35)): 2 | Hyponatremia, patients (grade 2, all DLs (n=35)): 1 | Hypophosphatemia, patients (grade 2, all DLs (n=35)): 6 | Hypothyroidism, patients (grade 2, all DLs (n=35)): 1 | INR increased, patients (grade 2, all DLs (n=35)): 1 | Infections and infestations - NOS, patients (grade 2, all DLs (n=35)): 2 | Infusion site extravasation, patients (grade 2, all DLs (n=35)): 1 | Lymphocyte count decreased, patients (grade 2, all DLs (n=35)): 6 | Nausea, patients (grade 2, all DLs (n=35)): 4 | Neutropenia, patients (grade 2, all DLs (n=35)): 3 | Platelet count decreased, patients (grade 2, all DLs (n=35)): 3 | Proteinuria, patients (grade 2, all DLs (n=35)): 2 | Thrombophlebitis - superficial, patients (grade 2, all DLs (n=35)): 1 | Urinary tract infection, patients (grade 2, all DLs (n=35)): 1 | Vomiting, patients (grade 2, all DLs (n=35)): 6 | Weight loss, patients (grade 2, all DLs (n=35)): 4 | White blood cell count decreased, patients (grade 2, all DLs (n=35)): 4 | White blood cell count increased, patients (grade 2, all DLs (n=35)): 1 | Dehydration, patients (grade 3, DL6): 1 | Febrile Neutropenia, patients (grade 3, DL6): 1 | GGT increased, patients (grade 3, DL6): 1 | Hypokalemia, patients (grade 3, DL6): 1 | Hypoxia, patients (grade 3, DL6): 1 | Lymphopenia (Lymphocyte count decreased), patients (grade 3, DL6): 5 | Nausea, patients (grade 3, DL6): 1 | Neutropenia, patients (grade 3, DL6): 1 | Aspartate aminotransferase increased, patients (grade 3, DL7): 1 | Dehydration, patients (grade 3, DL7): 1 | GGT increased, patients (grade 3, DL7): 1 | Hypokalemia, patients (grade 3, DL7): 1 | Lymphopenia (Lymphocyte count decreased), patients (grade 3, DL7): 2 | Nausea, patients (grade 3, DL7): 1 | Aspartate aminotransferase increased, patients (grade 3, all DLs (n=35)): 1 | Dehydration, patients (grade 3, all DLs (n=35)): 1 | Febrile Neutropenia, patients (grade 3, all DLs (n=35)): 1 | GGT increased, patients (grade 3, all DLs (n=35)): 2 | Hypokalemia, patients (grade 3, all DLs (n=35)): 2 | Hypoxia, patients (grade 3, all DLs (n=35)): 1 | Lymphocyte count decreased, patients (grade 3, all DLs (n=35)): 7 | Nausea, patients (grade 3, all DLs (n=35)): 2 | Neutropenia, patients (grade 3, all DLs (n=35)): 1 | Leukopenia (White blood cell count decreased), patients (grade 4, DL6): 1 | Lymphopenia (Lymphocyte count decreased), patients (grade 4, DL6): 1 | Neutropenia, patients (grade 4, DL6): 1 | Lymphocyte count decreased, patients (grade 4, all DLs (n=35)): 1 | Neutropenia, patients (grade 4, all DLs (n=35)): 1 | White blood cell count decreased, patients (grade 4, all DLs (n=35)): 1 | Sudden death - NOS, patients (grade 5, DL7): 1 | Death considered possibly related to treatment (one patient, DL7): grade 5 sudden death – NOS; also recorded: died of a pulmonary embolism
